In patent US20220401428A1, “Method for Treatment of Alzheimer's Disease” (University of Kentucky Research Foundation, priority 2019, published 2022):
“Also recorded” adds a separate entry of the source.

Legend:
LRP1 = LRP1 protein expression in rat brain microvascular ECs (Western blot, immunofluorescence); format: cell-based; settings: ECs, 24 hours, Western blot
Description: To study the role of miRNA signaling in amylin-induced suppression of endothelial LRP1 expression, transfection of rat brain microvascular ECs was used with miR-103-3p (MCR01039)[…](SEQ ID NO: 5), miR-107-3p (MCR01045)[…](SEQ ID NO: 6) and control (MCH00000) (https://www.abmgood.com/mirna-mimic-negative-control-mch00000.html). Antagomir miR-103-3p (IH-320345-05-0005)(SEQ ID NO: 5), miR-107-3p (IH-320348-05-0005)(SEQ ID NO: 6) and negative control (IN-001005-01-05) (https://www.biocompare.com/22445-RNA/4995709-miRIDIAN-microRNA-Hairpin-Inhibitor-Negative-Control-1-5-nmol/#productspecs) (Dharmacon Inc.) were used in an attempt to rescue LRP1 expression. All transfections were done using RNAiMAX (Invitrogen) as per manufacturer's recommended protocol. Briefly, ECs were plated at 50% confluency in 6-well plates followed by co-transfection with either 100 nM of 103-3p and 107-3p mimics or antagomirs along with their respective negative controls. After 12-hours, antagomir-treated cell groups were further treated with 10 uM human amylin for 24-hours. After 36-hours of transfection, cells were harvested for Western blot analysis.
In immunofluorescence experiments, formalin-fixed, paraffin-embedded human brain tissue was used and processed as previously described^16,18,39, brain capillaries from HIP and WT rats isolated as previously described^18. and cultured ECs. Anti-amylin (1:200; clone E5; SC-377530; Santa Cruz), anti-collagen IV (1:500; ab6586; abcam), anti-alpha smooth muscle actin-Alexa Fluor 405 (1:200; ab210128, abcam), anti-caveolin-1 (1:100; sc-894; Santa Cruz, Tex.), anti-LRP1 (1:500; sc-57351; Santa Cruz), anti-4HNE (1:200; ab46545; abcam) were the primary antibodies. Secondary antibodies were: Alexa Fluor 488 conjugated anti-mouse IgG (1:300; A11029; Invitrogen), Alexa Fluor 568 conjugated anti-rabbit IgG (1:200; A11036; Invitrogen), Alexa Fluor 568 conjugated anti-mouse IgG (1:300; A11004; Invitrogen). Nuclei were counterstained with DAPI mounting media. For triple staining of human brain tissues, smooth muscle actin-Alexa Fluor 405 antibody was added after staining with human amylin and collagen IV; DAPI free mounting media was used. For Thioflavin S staining, after secondary antibody incubation, brain slides were incubated in 0.5% Thioflavin S for 30 minutes at room temperature. Slides were then incubated for 3 minutes in 70% ethanol, 5 minutes in 0.2% Sudan black before washing and mounting. Immunocytochemistry was performed as described previously (39, 40).
Western blot analysis was performed on isolated brain capillaries, brain tissue homogenate and plasma from rats. Tissues were processed as described previously^16,18,28,39. RIPA buffer with 2% SDS was used to retrieve Aβ monomers from frozen brain samples^41. […]

LRP1 mRNA = LRP1 mRNA levels in ECs by qRT-PCR; format: cell-based; settings: 10 μM, vs control cells and ECs incubated with rat amylin
Description: (§1) Total RNA was isolated using RNAqueous total RNA isolation kit according to manufacturer's protocol (Invitrogen, AM1914). cDNA synthesis and amplification were done using iTaq Universal SYBR Green One-Step Kit (Biorad; 1725151) with the following primer sequences: LRP1: forward (Fwd) 5′-[…]-3′(SEQ ID NO: 7), reverse (Rev) 5′-[…]-3′(SEQ ID NO: 8); and GAPDH: Fwd 5′- […]-3′(SEQ ID NO: 9), Rev 5′-GTTTGCTCCAACCAACTGC-3′(SEQ ID NO: 10) (IDT, Inc, USA). For miRNA quantification, cDNA was synthesized from total RNA using miRNA cDNA synthesis kit with poly (A) polymerase (ABMgood, G902). cDNA was amplified using SYBR Green mastermix (Biorad) along with miRNA specific primers from (rno-miR-103-3p, MPR00332; rno-miR-107-3p, MPRO0335; RNU6 house Keeping gene, MP-r99998) (ABMgood). Data were analyzed using the 2^−ΔΔCt method, and experiments were normalized to GAPDH or U6 miRNA

[1] = system: rat brain microvascular endothelial cells; assay: MTS cytotoxicity assay on ECs; format: cell-based; settings: 500 nM, 1 μM, 5 μM and 10 μM, 24 hours
Description: CellTiter 96® AQueous One Solution Cell Proliferation Assay (MTS) (Promega) was used to assess cytotoxicity of aggregated amylin on the EC monolayer.

EC monolayer [2] = assay: Structural integrity of the EC monolayer in the in vitro BBB model (TEER, FITC-Dextran, morphology); format: cell-based, rat; settings: 10 μM, 24 hours
Procedure: (§2) In vitro BBB model of Aβ42 transcytosis with amylin-induced stress at the blood side. An in vitro BBB model described previously^37 was used with modifications related to amylin deposition on the EC monolayer and consequent effects on the Aβ transport across the EC monolayer. Briefly, primary rat brain microvascular endothelial cells (Cell Applications Inc) were plated on 24-well Transwell-Clear inserts with 0.4 μm pore polycarbonate membrane (Costar, Corning, N.Y., USA) and primary rat brain astrocytes (Sigma) were cultured at the bottom wells. Barrier integrity was measured from the trans-endothelial electrical resistance (TEER) as described previously^37,38 using the EVOM2 meter with STX-3 electrodes (World Precision Instruments). Maximum TEER was achieved within 8-10 days in culture. BBB permeabilities to human amylin (10 μM; Anaspec; AS-60254-1), rat amylin (10 μM; American Peptide) and DMSO (1 mM; vehicle) were assessed using FITC-Dextran 4 kDa (Fisher Scientific) diluted in Hank's Balanced Salt Solution (HBSS) buffer with 0.1% BSA (HBSS-BSA) as a paracellular diffusion marker. Permeability coefficients were calculated using the formula; P=(ΔQ/Δt)/(A*C0), (ΔQ/Δt)=rate of FITC-Dextran change; A=surface area of insert (0.33cm^2); C0=Initial FITC-Dextran input.

EC monolayer [3] = assay: Aβ42 transcytosis across the in vitro BBB model; format: cell-based, rat; settings: 10 μM at the luminal side for 24 hours, then Aβ42-FAM at the abluminal side for 1 hour; vs vehicle; P<0.05
Procedure: as §2, with “input. […]” for “input.”

[4] = system: rat brain microvascular ECs; assay: Lipid peroxidation and ROS in cultured rat brain microvascular ECs; format: cell-based; settings: 10 μM amylin, 24-hour incubation
Procedure: Lipid peroxidation and ROS were measured in cultured rat brain microvascular ECs using previously published protocols^26,39.

miR-103 and miR-107 = miR-103 and miR-107 expression in ECs by qRT-PCR; format: cell-based, rat; settings: ECs incubated with human amylin
Description: as §1

With human amylin the “reduction of LRP1 expression” value (LRP1; 10 μM) was “more than 50%”, the “LRP1 protein levels against concentration” value (LRP1; various concentrations (500 nM to 10 μM)) was “decreased with increasing concentrations” and the “LRP1 mRNA levels” value (LRP1 mRNA) was “greatly elevated”. The “viability of the ECs” value [1] was “not significant; also recorded: not affected”, the EC monolayer morphology (EC monolayer [2]) was “neither the intercellular space, as assessed from FITC-dextran permeability (FIG. S4C-D), nor EC monolayer morphology (FIG. 18E) were significantly altered” and the TEER (EC monolayer [2]) was “decreased”. The “intercellular space assessed from FITC-dextran (4 kDa) permeability” value (EC monolayer [2]) was “neither the intercellular space, as assessed from FITC-dextran permeability (FIG. S4C-D), nor EC monolayer morphology (FIG. 18E) were significantly altered”, the “reduction of the Aβ transcytosis quotient” value (EC monolayer [3]) was 20+5% and the “generation of ROS” value [4] was “increased generation of ROS”. For the same substance, the “lipid peroxidation of the EC membranes” value [4] was “lipid peroxidation of the EC membranes” and the “miR-103 and miR-107 levels” value (miR-103 and miR-107) was “elevated levels of miR-103 and miR-107”.
